Source: paper PMC9837035 (Nature Communications, 2023)
Where “and” joins values, the source holds several entries; their conditions need not be identical. Identical values can stand only once.

Key:
[1] = tested on: ZBTB7A occupancy at the β-globin locus; assay: ChIP-qPCR with antibody against ZBTB7A in HUDEP-2 cells; type: cell-based, human; design: ChIP-qPCR, antibody against ZBTB7A: scale not given here; conditions: for occupancy of ZBTB7A: HUDEP-2, 4 days
Procedure: A total of 0.5–1 × 10^6 cells were cross-linked with 1% formaldehyde for 10 min at room temperature and the reaction was quenched with 250 mM glycine. Cross-linked cells were then lysed with buffer 1 (15 mM Tris-HCl (pH 7.5), 60 mM KCl, 15 mM NaCl, 5 mM MgCl2, 0.1 mM EGTA, 300 mM sucrose, […], 1 mM phenylmethanesulfonyl fluoride (PMSF), 0.5% NP40) and incubated on ice for 10 min. After centrifugation, the pellet was re-suspended in buffer 2 (15 mM Tris-HCl (pH 7.5), 60 mM KCl, 15 mM NaCl, 5 mM MgCl2, 0.1 mM EGTA, 1.2 M sucrose, […], 1 mM PMSF). After centrifugation, the pellet was then re-suspended in MNase buffer (50 mM Tris-HCl (pH 7.5), 1 mM CaCl2, 4 mM MgCl2, 320 mM sucrose, 1 mM PMSF) and digested with 100 U of micrococcal nuclease (Takara) at 37 °C for 15 min. After the reaction was quenched with 20 mM EDTA, the supernatants were incubated with antibodies (anti-H3K9me2 (1:100), Abcam, ab1220; anti-H3K9ac (1:100), Active Motif, 39917; Goat anti-IgG (H + L) (1:100), Jackson Immunoresearch; anti-BCL11A (1:100), Novus Biologicals, NB600-261; anti-ZBTB7A (1:100), Thermo Fisher Scientific, eBioscience (13E9); anti-CHD3 (1:100), Novus Biologicals, NB-100-60412; anti-CHD4 (1:100), abcam, ab240640) and Protein A/G PLUS-Agarose (Santa Cruz Biotechnology) overnight at 4 °C. Beads were washed sequentially once with the following buffers: wash buffer A (50 mM Tris-HCl (pH 7.5), 75 mM NaCl, 10 mM EDTA, 0.01% NP40), wash buffer B (50 mM Tris-HCl (pH 7.5), 100 mM NaCl, 10 mM EDTA, 0.01% NP40), wash buffer C (50 mM Tris-HCl (pH 7.5), 175 mM NaCl, 10 mM EDTA, 0.01% NP40). After treatment with proteinase K in buffer 4 (20 mM Tris-HCl (pH 8.0), 10 mM EDTA, 400 mM NaCl, 0.5% SDS) at 56 °C overnight, DNA was purified using the FastGene Gel/PCR Extraction Kit (Nippon Genetics). The samples were analyzed by qPCR. Primers are listed in Supplementary Table 10. ChIP-seq experiments were performed by GENEWIZ. Tracks were visualized using the integrative genome viewer. ChIP-seq analysis were analyzed Cutadapt (V1.9.1) for QC, FastQC (V0.10.1) for QC assessment, Bowtie (V2.1.0) for mapping, strand cross-correlation (SCC) for ChIP quality assessment, MACS2 for peak calling, and R package ChIPpeakAnno for Peak annotated.

MLL4 [2] = target: MLL4 (Homo sapiens, UniProt Q9UMN6)
PRMT3 = target: T1, PRMT3 (Homo sapiens, UniProt O60678); assay: Radioisotope-based methyltransferase assay (selectivity); type: biochemical
T1 construct: purchased Reaction Biology

DNMT3b = DNMT3b (Homo sapiens, UniProt Q9UBC3); assay: biochemical
SET1b = target: T2, SET1b (Homo sapiens, UniProt Q9UPS6); assay: Radioisotope-based methyltransferase assay (selectivity); type: biochemical
T2 construct: purchased Reaction Biology

[3] = tested on: rat myoblast cell line H9c2; assay: Cell viability assay (WST-8), H9c2; type: cell-based; conditions: for cell viability in H9c2 cells: control (0 μM) = 100
Procedure: (§1) A WST-8 (2-(2-methoxy-4-nitrophenyl)-3-(4-nitrophenyl)-5-(2,4-disulfophenyl)-2H-tetrazolium) assay using a Cell Counting Kit-8 (DOJINDO) was performed to measure cell viability using an EnSpire microplate reader (PerkinElmer).

[4] = Cell viability assay (WST-8), H9c2; type: cell-based, rat; conditions: rat, H9c2 myoblast cells, control (0 μM) = 100
Procedure: as §1

MLL4 [5] = target: MLL4
[6] = tested on: G9a and GLP in HUDEP-2 cells; assay: Western blotting of G9a and GLP levels in HUDEP-2 cells; type: cell-based, human
Procedure: Preparation of cell lysates and western blotting were performed as described previously. Protein from cells lysates in lysis buffer (50 mM Tris-HCl (pH 7.5), 150 mM NaCl, 5 mM EDTA, 0.1% NP-40, 1 mM dithiothreitol) were separated by sodium dodecyl sulfate–polyacrylamide gel electrophoresis (SDS-PAGE) and transferred to a polyvinylidene difluoride (PVDF) membrane (Millipore) by electroblotting. The membranes incubated with primary antibodies overnight at 4 °C and secondary antibodies for 1 h at room temperature. The immune complexes were detected with the Immobilon Western Chemiluminescent HRP Substrate (Millipore). Luminescence was analyzed on a FUSION SOLO S (Vilber). Western blot bands were visualized using Evolution Capt software (M&S Instruments Inc.). Primary antibodies used were anti-G9a (1:1000, CST, #3306), anti–α-tubulin (1:5000, Abcam, ab18251), anti-H3K9me2 (1:3000, Abcam, ab1220), anti-H3 (1:5000, Abcam, ab1791), anti-H3K27me3 (1:3000, Sigma, 07-449), anti-GLP (1:1000, CST, #35005), anti-FLAG (100 ng/ml, Fujifilm, 01422383), anti-His (1:5000, MBL, PM032), anti-BCL11A (1:1000, abcam, ab19487), anti-ZBTB7A (1:1000, CST, #50565), anti-CHD3 (1:1000, Novus Biologicals, NB100-60412), and anti-CHD4 (1:1000, abcam, ab240640). Uncropped scans of all of the blots are available in Source Data file.

EZH2 = EZH2 (Homo sapiens, UniProt Q15910); assay: biochemical

T1 sequence (O60678 whole entry): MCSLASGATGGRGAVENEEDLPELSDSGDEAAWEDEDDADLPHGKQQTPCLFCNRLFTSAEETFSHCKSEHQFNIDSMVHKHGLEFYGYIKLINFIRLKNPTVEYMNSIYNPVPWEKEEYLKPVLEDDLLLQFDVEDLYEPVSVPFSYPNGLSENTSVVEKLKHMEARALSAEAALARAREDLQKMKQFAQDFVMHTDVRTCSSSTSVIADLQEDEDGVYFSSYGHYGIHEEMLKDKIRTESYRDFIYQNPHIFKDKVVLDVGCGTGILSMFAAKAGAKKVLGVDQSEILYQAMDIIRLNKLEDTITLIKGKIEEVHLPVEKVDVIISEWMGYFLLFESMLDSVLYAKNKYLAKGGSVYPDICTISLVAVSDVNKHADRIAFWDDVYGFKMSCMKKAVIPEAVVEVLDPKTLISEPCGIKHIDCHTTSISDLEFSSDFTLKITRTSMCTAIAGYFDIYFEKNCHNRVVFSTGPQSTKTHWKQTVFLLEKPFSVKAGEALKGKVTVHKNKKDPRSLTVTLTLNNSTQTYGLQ
MLL4, sequence (Q9UMN6 2490-2715): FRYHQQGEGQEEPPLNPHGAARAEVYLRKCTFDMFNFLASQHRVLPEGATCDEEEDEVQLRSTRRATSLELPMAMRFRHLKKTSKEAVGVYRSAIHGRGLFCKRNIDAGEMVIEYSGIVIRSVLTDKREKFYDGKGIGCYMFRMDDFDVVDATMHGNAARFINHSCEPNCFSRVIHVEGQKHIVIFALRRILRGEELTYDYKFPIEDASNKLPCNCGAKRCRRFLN
MLL4, sequence (Q9UBL3 whole entry, further chain): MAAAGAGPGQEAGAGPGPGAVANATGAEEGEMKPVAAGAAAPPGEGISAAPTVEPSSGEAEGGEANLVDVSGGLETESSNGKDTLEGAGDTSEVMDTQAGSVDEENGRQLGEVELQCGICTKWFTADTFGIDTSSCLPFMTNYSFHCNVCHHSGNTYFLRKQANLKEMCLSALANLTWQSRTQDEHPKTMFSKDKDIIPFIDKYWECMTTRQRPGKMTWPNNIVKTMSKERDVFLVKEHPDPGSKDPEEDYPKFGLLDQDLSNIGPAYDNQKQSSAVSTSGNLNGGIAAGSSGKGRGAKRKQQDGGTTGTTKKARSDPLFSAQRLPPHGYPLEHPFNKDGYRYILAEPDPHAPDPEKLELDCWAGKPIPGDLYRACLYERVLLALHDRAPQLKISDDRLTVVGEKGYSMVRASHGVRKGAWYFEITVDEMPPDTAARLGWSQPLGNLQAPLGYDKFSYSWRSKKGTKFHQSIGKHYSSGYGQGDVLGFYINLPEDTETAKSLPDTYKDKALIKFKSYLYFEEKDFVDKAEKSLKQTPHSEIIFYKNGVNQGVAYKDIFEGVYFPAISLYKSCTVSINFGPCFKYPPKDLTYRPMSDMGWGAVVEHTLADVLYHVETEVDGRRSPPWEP
MLL4, sequence (Q9C005 whole entry, further chain): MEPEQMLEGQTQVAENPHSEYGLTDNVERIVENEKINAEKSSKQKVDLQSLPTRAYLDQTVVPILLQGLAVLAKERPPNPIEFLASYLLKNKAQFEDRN
MLL4, sequence (Q15291 whole entry, further chain): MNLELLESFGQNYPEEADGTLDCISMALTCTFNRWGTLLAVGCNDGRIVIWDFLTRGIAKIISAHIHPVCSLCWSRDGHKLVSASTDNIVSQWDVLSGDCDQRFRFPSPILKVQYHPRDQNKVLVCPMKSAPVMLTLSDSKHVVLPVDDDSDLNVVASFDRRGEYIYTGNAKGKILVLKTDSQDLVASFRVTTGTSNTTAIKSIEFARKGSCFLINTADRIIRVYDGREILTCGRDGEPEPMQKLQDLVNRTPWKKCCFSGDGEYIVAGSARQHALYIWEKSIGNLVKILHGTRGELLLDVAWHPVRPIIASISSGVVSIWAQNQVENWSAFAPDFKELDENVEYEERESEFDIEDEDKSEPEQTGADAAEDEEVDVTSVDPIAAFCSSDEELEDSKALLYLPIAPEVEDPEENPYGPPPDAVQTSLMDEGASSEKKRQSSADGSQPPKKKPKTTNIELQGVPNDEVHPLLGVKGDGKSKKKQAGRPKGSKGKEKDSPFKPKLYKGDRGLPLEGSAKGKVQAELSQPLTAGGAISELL
MLL4 (Homo sapiens, UniProt Q9UMN6), sequence (Q9UMN6 2490-2715): as the sequence (Q9UMN6 2490-2715) above
MLL4 (Homo sapiens, UniProt Q9UMN6), sequence (Q9UBL3 whole entry, further chain): as the sequence (Q9UBL3 whole entry, further chain) above
MLL4 (Homo sapiens, UniProt Q9UMN6), sequence (Q9C005 whole entry, further chain): as the sequence (Q9C005 whole entry, further chain) above
MLL4 (Homo sapiens, UniProt Q9UMN6), sequence (Q15291 whole entry, further chain): as the sequence (Q15291 whole entry, further chain) above

SMILES: NC(=O)NO [Hydroxyurea, hydroxyurea]
- ChIP-qPCR, antibody against ZBTB7A ([1]; BGLT3 locus, HUDEP-2 cells treated with hydroxyurea, replicates 1a-3b): 0.2555 and 0.2878 and 0.489 and 0.1677 and 0.3852 and 0.1554
- ChIP-qPCR, antibody against ZBTB7A ([1]; HS1, HUDEP-2 cells treated with hydroxyurea, replicates 1a-3b): 0.1321 and 0.1347 and 0.8135 and 0.9678 and 0.3385 and 0.3161
- ChIP-qPCR, antibody against ZBTB7A ([1]; HS2, HUDEP-2 cells treated with hydroxyurea, replicates 1a-3b): 0.5755 and 1.852 and 0.7582 and 2.507 and 0.9285 and 0.344
- ChIP-qPCR, antibody against ZBTB7A ([1]; HS3, HUDEP-2 cells treated with hydroxyurea, replicates 1a-3b): 3.3 and 2.712 and 3.199 and 3.147 and 3.201 and 2.452
- ChIP-qPCR, antibody against ZBTB7A ([1]; HS4, HUDEP-2 cells treated with hydroxyurea, replicates 1a-3b): 0.5937 and 0.6906 and 0.5556 and 0.0004431 and 0.6456 and 0.709
- occupancy of ZBTB7A [1]: unchanged
- ChIP-qPCR, antibody against ZBTB7A ([1]; β-globin promoter, HUDEP-2 cells treated with hydroxyurea, replicates 1a-3b): 0.3506 and 0.4318 and 0.349 and 0.2415 and 0.313 and 0.6542
- ChIP-qPCR, antibody against ZBTB7A ([1]; γ-globin promoter, HUDEP-2 cells treated with hydroxyurea, replicates 1a-3b): 0.3068 and 0.4102 and 0.3595 and 0.2786 and 0.238 and 0.2672
- ChIP-qPCR, antibody against ZBTB7A ([1]; δ-globin promoter, HUDEP-2 cells treated with hydroxyurea, replicates 1a-3b): 0.2368 and 0.1088 and 0.2161 and 0.2308 and 0.337 and 0.2535

SMILES: Nc1ncnc2c1ncn2[C@@H]1O[C@H](CSCC[C@H](N)C(=O)O)[C@@H](O)[C@H]1O [SAH, S-(5'-Adenosyl)-L-homocysteine, reference compound]
- IC50 (MLL4 [2]): 1.13 µM
- IC50 (PRMT3; PRMT3, 1 μM SAM): 2.4 µM
- IC50 (PRMT3; PRMT3, RK-701 in duplicate): 2.44 µM
- IC50 (DNMT3b): 0.112 µM
- IC50 (SET1b; 1 μM SAM): 5.3 µM
- IC50 (SET1b; RK-701 in duplicate): 5.3 µM

SMILES: Cc1c(C(=O)N[C@H](CCC2CC2)C(=O)Nc2ccc(C#N)cc2)[nH]c2c1C(=O)CC(C)(C)C2 [RK-0133114]
- cell viability in H9c2 cells ([3]; 0.039 μM): 95.980 and 104.160
- cell viability in H9c2 cells ([3]; 0.156 μM): 93.342 and 91.200
- cell viability in H9c2 cells ([3]; 0.625 μM): 99.497 and 102.560
- cell viability in H9c2 cells ([3]; 2.5 μM): 93.970 and 103.040
- cell viability in H9c2 cells ([3]; 10.0 μM): 89.573 and 98.080
- viability at 0.039 μM [4]: 89.5%
- viability at 0.156 μM [4]: 100%
- viability at 0.625 μM ([4]; 0.625 μM): 116%
- viability at 2.5 μM ([4]; 2.5 μM): 85.5%
- viability at 10 μM ([4]; 10.0 μM): 106%

SMILES: Cc1c(C(=O)NC(CCC2CC2)C(=O)Nc2ccc(C#N)cc2)[nH]c2c1C(=O)CC(C)(C)C2 (centres unmarked) [RK-701]
- ChIP-qPCR, antibody against ZBTB7A ([1]; BGLT3 locus, HUDEP-2 cells treated with RK-701, replicates): 0.4785 and 0.7839 and 0.6066 and 0.47 and 0.614 and 0.4023
- ChIP-qPCR, antibody against ZBTB7A ([1]; HS1, HUDEP-2 cells treated with RK-701, replicates): 0.3678 and 0.05637 and 0.7128 and 0.4479 and 0.1475 and 0.1331
- ChIP-qPCR, antibody against ZBTB7A ([1]; HS2, HUDEP-2 cells treated with RK-701, replicates): 1.5097 and 1.657 and 5.746 and 3.531 and 2.263 and 8.084 and 5.171
- ChIP-qPCR, antibody against ZBTB7A ([1]; HS3, HUDEP-2 cells treated with RK-701, replicates): 0.5878 and 1.255 and 2.352 and 2.616 and 1.402 and 1.245 and 2.743
- ChIP-qPCR, antibody against ZBTB7A ([1]; HS4, HUDEP-2 cells treated with RK-701, replicates): 0.4061 and 0.5382 and 0.8901 and 0.4009 and 0.2486
- occupancy of ZBTB7A [1]: significantly reduced
- ChIP-qPCR, antibody against ZBTB7A ([1]; β-globin promoter, HUDEP-2 cells treated with RK-701, replicates): 0.04529 and 0.1645 and 0.1359 and 0.07664 and 0.1559 and 0.07017 and 0.04448 and 0.1674 and 0.1136
- ChIP-qPCR, antibody against ZBTB7A ([1]; γ-globin promoter, HUDEP-2 cells treated with RK-701, replicates): 0.04733 and 0.01872 and 0.01192 and 0.1001 and 0.03782 and 0.06607 and 0.08612
- ChIP-qPCR, antibody against ZBTB7A ([1]; δ-globin promoter, HUDEP-2 cells treated with RK-701, replicates): 0.02578 and 0.1044 and 0.02059 and 0.06153 and 0.0851 and 0.07628
- IC50 (MLL4 [5]): > 100 µM
- expression levels of G9a and GLP [6]: did not affect
- cell viability in H9c2 cells ([3]; 0.039 μM): 91.465 and 104.927
- cell viability in H9c2 cells ([3]; 0.156 μM): 91.465 and 106.022
- cell viability in H9c2 cells ([3]; 0.625 μM): 97.754 and 88.280 and 116.423
- cell viability in H9c2 cells ([3]; 2.5 μM): 95.509 and 92.994 and 114.051
- cell viability in H9c2 cells ([3]; 10.0 μM): 145.310 and 89.427 and 118.431
- cytotoxic effect on viability ([3]; H9c2, 5 days): essentially no cytotoxic effect
- viability at 0.039 μM [4]: 101%
- viability at 0.156 μM [4]: 95.6%
- IC50 (PRMT3; PRMT3, 1 μM SAM): > 100 µM
- IC50 (PRMT3; PRMT3, RK-701 in duplicate): > 100 µM
- IC50 (DNMT3b): > 100 µM
- IC50 (EZH2): > 100 µM
- IC50 (SET1b; 1 μM SAM): 48.6 µM
- IC50 (SET1b; RK-701 in duplicate): 47.6 µM and 49.6 µM
